Experimental findings from ChEMBL document CHEMBL1144998, “C(8) substituted 1-azabicyclo[3.3.1]non-3-enes and C(8) substituted 1-azabicyclo[3.3.1]nonan-4-ones: novel muscarinic receptor antagonists” (J Med Chem, 2003) are described below.

The target of experiment [1] is T1, Muscarinic acetylcholine receptor M1 (Homo sapiens, UniProt P11229).
T1 sequence (P11229 whole entry): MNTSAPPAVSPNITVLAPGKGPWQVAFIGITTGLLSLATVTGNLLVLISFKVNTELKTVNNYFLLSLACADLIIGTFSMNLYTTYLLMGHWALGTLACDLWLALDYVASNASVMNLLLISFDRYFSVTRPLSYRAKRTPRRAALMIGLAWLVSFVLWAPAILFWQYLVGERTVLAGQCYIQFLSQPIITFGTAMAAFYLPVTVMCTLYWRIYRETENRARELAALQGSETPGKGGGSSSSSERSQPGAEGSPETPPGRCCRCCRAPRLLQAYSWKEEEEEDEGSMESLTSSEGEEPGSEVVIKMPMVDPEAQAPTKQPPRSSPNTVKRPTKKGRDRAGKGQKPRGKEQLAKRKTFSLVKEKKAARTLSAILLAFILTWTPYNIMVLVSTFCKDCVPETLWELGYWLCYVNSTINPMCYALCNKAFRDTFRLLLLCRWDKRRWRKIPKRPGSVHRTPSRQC
The experiment can be described thus: Binding affinity of compound was determined towards human Muscarinic acetylcholine receptor M1 using [3H]QNB radioligand.

The target of experiment [2] is T2, Muscarinic acetylcholine receptor M5 (Homo sapiens, UniProt P08912).
T2 sequence (P08912 whole entry): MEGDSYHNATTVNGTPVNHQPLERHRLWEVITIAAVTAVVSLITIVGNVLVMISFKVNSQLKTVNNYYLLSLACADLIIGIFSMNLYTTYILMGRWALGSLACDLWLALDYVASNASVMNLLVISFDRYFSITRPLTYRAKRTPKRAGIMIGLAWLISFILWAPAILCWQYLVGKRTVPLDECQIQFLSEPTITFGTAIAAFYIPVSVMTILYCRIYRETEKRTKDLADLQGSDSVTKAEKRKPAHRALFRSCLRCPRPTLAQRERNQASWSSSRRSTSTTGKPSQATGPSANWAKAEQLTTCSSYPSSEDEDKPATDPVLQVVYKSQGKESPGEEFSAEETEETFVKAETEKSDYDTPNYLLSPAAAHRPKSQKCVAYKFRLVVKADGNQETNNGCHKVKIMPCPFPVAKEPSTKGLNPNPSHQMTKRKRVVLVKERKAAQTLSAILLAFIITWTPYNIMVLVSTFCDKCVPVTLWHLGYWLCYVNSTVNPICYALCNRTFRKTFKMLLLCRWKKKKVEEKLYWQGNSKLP
The experiment can be described thus: Binding affinity of compound was determined towards human Muscarinic acetylcholine receptor M5 using [3H]QNB radioligand.

The target of experiment [3] is Muscarinic acetylcholine receptor M3 (Homo sapiens, UniProt P20309). The experiment can be described thus: Binding affinity of compound was determined towards human Muscarinic acetylcholine receptor M3 using [3H]QNB radioligand.
Chain of Muscarinic acetylcholine receptor M3 (P20309 whole entry): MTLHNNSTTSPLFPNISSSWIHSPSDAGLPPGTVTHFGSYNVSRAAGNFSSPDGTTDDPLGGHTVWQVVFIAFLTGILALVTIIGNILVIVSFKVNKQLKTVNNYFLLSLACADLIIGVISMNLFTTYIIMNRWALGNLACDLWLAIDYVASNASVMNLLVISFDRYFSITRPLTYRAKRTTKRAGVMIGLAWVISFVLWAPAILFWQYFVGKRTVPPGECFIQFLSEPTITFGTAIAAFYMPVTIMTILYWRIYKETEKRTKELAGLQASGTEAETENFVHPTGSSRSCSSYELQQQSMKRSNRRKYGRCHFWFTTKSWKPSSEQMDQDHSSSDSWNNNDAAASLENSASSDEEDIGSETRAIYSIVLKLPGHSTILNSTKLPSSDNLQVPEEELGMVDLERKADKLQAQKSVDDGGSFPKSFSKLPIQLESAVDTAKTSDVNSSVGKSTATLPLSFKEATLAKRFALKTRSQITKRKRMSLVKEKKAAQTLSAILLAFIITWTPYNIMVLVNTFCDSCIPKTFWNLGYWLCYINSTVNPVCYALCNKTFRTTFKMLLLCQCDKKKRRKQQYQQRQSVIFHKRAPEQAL
Experiment [4] addresses T3, Muscarinic acetylcholine receptor M2 (Homo sapiens, UniProt P08172).
T3 sequence (P08172 whole entry): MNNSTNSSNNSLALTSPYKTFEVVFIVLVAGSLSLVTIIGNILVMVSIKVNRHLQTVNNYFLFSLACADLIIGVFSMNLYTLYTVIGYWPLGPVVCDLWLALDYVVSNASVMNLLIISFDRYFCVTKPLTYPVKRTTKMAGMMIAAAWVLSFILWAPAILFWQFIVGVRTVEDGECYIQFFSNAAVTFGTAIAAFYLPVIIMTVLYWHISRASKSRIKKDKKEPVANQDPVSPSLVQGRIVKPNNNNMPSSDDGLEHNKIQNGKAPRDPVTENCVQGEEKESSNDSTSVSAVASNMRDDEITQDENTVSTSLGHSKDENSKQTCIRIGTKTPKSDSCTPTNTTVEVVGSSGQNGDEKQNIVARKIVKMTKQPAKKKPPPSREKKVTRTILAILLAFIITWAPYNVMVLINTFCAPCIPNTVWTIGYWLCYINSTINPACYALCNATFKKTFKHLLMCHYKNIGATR
The experiment can be described thus: Binding affinity of compound was determined towards human Muscarinic acetylcholine receptor M2 using [3H]QNB radioligand.

Experiment [5] concerns the target T4, Muscarinic acetylcholine receptor M4 (Homo sapiens, UniProt P08173).
T4 sequence (P08173 whole entry): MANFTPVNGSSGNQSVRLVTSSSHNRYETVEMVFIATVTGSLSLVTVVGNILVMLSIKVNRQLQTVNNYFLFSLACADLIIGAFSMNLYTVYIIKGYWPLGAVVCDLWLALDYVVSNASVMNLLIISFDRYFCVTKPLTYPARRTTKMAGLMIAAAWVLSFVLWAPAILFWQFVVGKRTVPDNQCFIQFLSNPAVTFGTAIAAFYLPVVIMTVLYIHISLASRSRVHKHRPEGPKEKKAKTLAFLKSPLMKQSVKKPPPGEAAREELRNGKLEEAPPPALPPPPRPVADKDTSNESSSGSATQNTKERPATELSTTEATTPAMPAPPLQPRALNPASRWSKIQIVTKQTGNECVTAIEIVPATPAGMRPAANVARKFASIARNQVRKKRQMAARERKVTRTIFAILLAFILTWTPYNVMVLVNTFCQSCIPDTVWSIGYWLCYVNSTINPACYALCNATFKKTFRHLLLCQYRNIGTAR
The experiment can be described thus: Binding affinity of compound was determined towards human Muscarinic acetylcholine receptor M4 using [3H]QNB radioligand.

A value given as a limit tells only on which side of the number the result lay.

Usually Ki stands for the equilibrium dissociation constant of an inhibitor or competing ligand from its target. Higher therefore signals weaker binding.

As for `CCO/C(O)=C1\CN2CCCC(C2)C1=O` (configuration not stated), the Ki in experiment [1] worked out at 1200 nM; in experiment [2], 980 nM; in experiment [3] it was 1500 nM; in experiment [4] it was 1600 nM; in experiment [5], 2600 nM.
As for `CCO/C(O)=C1\CN2CC(CCC2COCc2ccccc2)C1=O` (stereo in doubt; 3), the Ki in experiment [1] came to 250 nM; in experiment [2], 560 nM; in experiment [3], 840 nM; in experiment [4], 80 nM; in experiment [5], 270 nM.
Regarding `CCO/C(O)=C1\CN2CC(CCC2COCc2ccccc2)C1=O` (stereo in doubt; 4), the Ki in experiment [1] turned out to be 6600 nM; in experiment [2], 3000 nM; in experiment [3], 7500 nM; in experiment [4] it was 4100 nM; in experiment [5], 11000 nM.
In the same order, the values of `CCO/C(O)=C1\CN2CC(CCC2CN(C)C)C1=O` (stereo in doubt; 5) are above 100000 nM, above 100000 nM, above 100000 nM, 86000 nM and above 100000 nM.
Take `CCO/C(O)=C1\CN2CC(CCC2CN(C)C)C1=O` (stereo in doubt; 6): the Ki in experiment [3] was 37000 nM; in experiment [4] it was above 100000 nM.
